# Measured values published in patent US6271233A, “Method for treating ocular neovascular diseases” (priority 1999, dated 2001).
# Columns and labels:
# [1] = system: other RTKs including VEGF receptors; assay: Kinase assay, other RTKs including VEGF receptors; format: biochemical; conditions: in words
# VEGF receptors = assay: Cellular autophosphorylation assay, transfected Chinese hamster ovary cells: VEGF receptors; format: cell-based
# Description: (§1) In vivo activity requires drugs to enter cells and therefore agents are tested in cellular autophosphorylation assays, using Chinese hamster ovary cells transfected with one of several RTK genes.
# PDGF receptors = assay: Cellular autophosphorylation assay, transfected Chinese hamster ovary cells: PDGF receptors; format: cell-based
# Description: as §1
# retinal blood vessels = conditions: administration of exogenous VEGF; cited from earlier work
# [2] = system: retinal neovascularization; conditions: pigs; cited from earlier work
# Flt-1 = molecular target: T1, Flt-1 (Homo sapiens, UniProt P17948); assay: Tyrosine kinase assay, phosphorylation of poly(GluTyr) by GST-fusion kinase domain: Flt-1; format: biochemical; conditions: in words
# T1 construct: kinase domains of human VEGF receptors 1 and 2
# T1 sequence (P17948 827-1158 limits assumed): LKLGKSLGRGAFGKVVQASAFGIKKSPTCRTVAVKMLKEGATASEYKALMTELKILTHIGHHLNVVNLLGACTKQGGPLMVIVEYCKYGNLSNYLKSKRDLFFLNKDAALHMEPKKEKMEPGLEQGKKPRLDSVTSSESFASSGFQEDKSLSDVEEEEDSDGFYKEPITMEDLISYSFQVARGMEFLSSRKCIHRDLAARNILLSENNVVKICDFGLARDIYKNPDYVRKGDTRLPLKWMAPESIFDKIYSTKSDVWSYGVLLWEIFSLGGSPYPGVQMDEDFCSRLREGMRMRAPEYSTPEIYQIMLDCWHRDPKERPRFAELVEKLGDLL
# [3] = system: choroidal neovascularization; assay: Laser-induced choroidal neovascularization in mice; conditions: 50 mg/kg/day by gavage
# Description: Choroidal neovascularization is generated by modification of a previously described technique. […] Three burns of krypton laser photocoagulation (100pm spot size, 0.1 seconds duration, 150 mW) are delivered to each retina using the slit lamp delivery system of a Coherent Model 920 Photocoagulator and a hand held cover slide as a contact lens. Burns are performed in the 9, 12, and 3 o'clock positions of the posterior pole of the retina. Production of a bubble at the time of laser, which indicates rupture of Bruch's membrane, is an important factor in obtaining CNV ^16, so only mice in which a bubble is produced for all three burns are included in the study. Ten mice are randomly assigned to treatment with vehicle alone and 10 mice received vehicle containing 120 μmoles/kg/day of one of the test drugs given orally by gavage. After 14 days, the mice are killed with an overdose of pentobarbital sodium, and their eyes are rapidly removed and frozen in optimal cutting temperature embedding compound (OCT).
# After a 10 minute wash in 0.05 M Tris buffer, pH 7.6, slides are developed in Histomark Red (Kirkegaard and Perry) to give a red reaction product, and mounted with Cytoseal (Stephens Scientific, Riverdale, N.J.). Some slides are counterstained with Contrast Blue (Kirkegaard and Perry).
# For each lesion, area measurements are made for all sections on which some of the lesion appeared and added together to give the integrated area measurement. Values are averaged to give one experimental value per mouse. A 2-sample t-test for unequal variances is performed to compare the log mean integrated area between treatment and control mice.
# [4] = system: all other tyrosine kinase and serine/threonine kinases tested; assay: Kinase assay, all other tyrosine kinase and serine/threonine kinases tested; format: biochemical; conditions: in words
# c-Kit = molecular target: T2, c-Kit (Homo sapiens, UniProt P10721); format: cell-based; conditions: transfected Chinese hamster ovary cells
# T2 construct: expressed in transfected cells; host or cells: Chinese hamster ovary cells
# Description: as §1
# c-erbB2 = assay: Cellular autophosphorylation assay, transfected Chinese hamster ovary cells: c-erbB2; format: cell-based
# Description: as §1
# [5] = system: retinal vascular development; assay: Retinal vascular development in neonatal mice; format: in vivo, mouse (C57/BL6J)
# Description: Litters of newborn C57/BL6J mice are divided into treatment and control groups which received daily subcutaneous injections of 10 mg/kg of drug or vehicle, respectively. […] The eyes are removed and fixed for 1 hour in 10% phosphate-buffered formalin. The cornea and lens are removed and the entire retina is carefully dissected from the eyecup, radially cut from the edge of the retina to the equator in all 4 quadrants, and flat-mounted in Aquamount with photoreceptors facing upward.
# insulin receptor = assay: Cellular autophosphorylation assay, transfected Chinese hamster ovary cells: insulin receptor; format: cell-based
# RTKs = conditions: in words; cited from earlier work
# T2 sequence (P10721 26-976): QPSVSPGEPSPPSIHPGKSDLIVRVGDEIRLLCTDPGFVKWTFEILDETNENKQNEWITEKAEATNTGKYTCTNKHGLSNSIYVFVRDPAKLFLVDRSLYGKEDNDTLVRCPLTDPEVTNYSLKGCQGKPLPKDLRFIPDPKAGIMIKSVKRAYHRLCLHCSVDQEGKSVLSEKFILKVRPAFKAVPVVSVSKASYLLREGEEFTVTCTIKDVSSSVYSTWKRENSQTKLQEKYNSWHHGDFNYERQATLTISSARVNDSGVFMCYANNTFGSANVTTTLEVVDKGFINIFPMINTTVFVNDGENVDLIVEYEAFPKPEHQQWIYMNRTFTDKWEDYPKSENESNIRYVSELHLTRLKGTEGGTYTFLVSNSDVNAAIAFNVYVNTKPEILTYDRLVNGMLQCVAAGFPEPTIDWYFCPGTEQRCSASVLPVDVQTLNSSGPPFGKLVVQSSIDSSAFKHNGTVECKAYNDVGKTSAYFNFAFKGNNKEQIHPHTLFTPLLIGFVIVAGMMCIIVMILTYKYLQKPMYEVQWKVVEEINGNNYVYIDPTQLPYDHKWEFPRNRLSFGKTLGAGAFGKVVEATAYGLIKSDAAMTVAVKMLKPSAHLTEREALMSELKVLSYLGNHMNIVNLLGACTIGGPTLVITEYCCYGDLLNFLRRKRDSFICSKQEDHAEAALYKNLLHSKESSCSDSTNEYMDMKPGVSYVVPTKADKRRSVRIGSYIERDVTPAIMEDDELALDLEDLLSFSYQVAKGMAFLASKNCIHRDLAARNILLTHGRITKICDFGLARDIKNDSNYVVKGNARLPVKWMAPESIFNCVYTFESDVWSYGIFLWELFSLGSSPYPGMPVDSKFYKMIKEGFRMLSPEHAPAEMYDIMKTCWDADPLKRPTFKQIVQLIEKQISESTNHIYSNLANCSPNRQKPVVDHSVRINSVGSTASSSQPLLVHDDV
molecule,measurement,setting,value
Cc1ccc(NC(=O)c2ccccc2)cc1Nc1nccc(-c2cccnc2)n1 [CGP 53 716],inhibition of other RTKs including VEGF receptors,[1],little or no inhibitory activity
same,inhibition of autophosphorylation of VEGF receptors,VEGF receptors,poor inhibitors
same,inhibition of autophosphorylation of PDGF receptors,PDGF receptors,potent inhibitors
VEGF,hyperoxia-induced regression of retinal blood vessels,retinal blood vessels,prevented
CN(C)C[C@@H]1CCn2cc(c3ccccc32)C2=C(C(=O)NC2=O)c2cn(c3ccccc23)CCO1 [LY 333531],inhibition of retinal neovascularization after laser-induced branch vein occlusion,[2],partially inhibited retinal neovascularization
Clc1ccc(Nc2nnc(Cc3ccncc3)c3ccccc23)cc1 [CGP 79787D],inhibition of phosphorylation by the kinase domain of human VEGF receptor 1,Flt-1,good inhibitor
same,appearance of overlying retinal vessels,[3]; two weeks after laser,appeared normal
same,choroidal neovascularization at laser-induced rupture sites of Bruch's membrane,[3]; two weeks after laser,very little if any choroidal neovascularization
same,integrated area of lectin staining per lesion,"[3]; n=5, vehicle 0.0713812±0.0066723 mm^2",0.01124±0.001483 mm^2
same,inhibition of phosphorylation by all other kinases tested,[4],poor inhibitor
same,inhibition of autophosphorylation of VEGF receptors,VEGF receptors,inhibits autophosphorylation
same,inhibition of autophosphorylation of c-Kit,c-Kit,inhibits autophosphorylation
same,inhibition of autophosphorylation of c-erbB2,c-erbB2,poor inhibitor
same,extent of retinal vessels at P7,"[5]; 10 mg/kg daily s.c. from P0, P7",only extended about half way to the periphery
same,extent of superficial capillary bed at P10,"[5]; 10 mg/kg daily s.c. from P0, P10",has not yet reached the edge of the retina
same,significance of differences in retinal vascular development versus vehicle,"[5]; 10 mg/kg daily s.c., P7 and P10, FIG. 5",highly significant
same,inhibition of autophosphorylation of insulin receptor,insulin receptor,poor inhibitor
same,inhibition of autophosphorylation of PDGF receptors,PDGF receptors,inhibits autophosphorylation
"O=c1c(-c2ccc(O)cc2)coc2cc(O)cc(O)c12 [Genistein, 4',5,7-trihydroxyisoflavone]",inhibition of RTKs,RTKs,"relatively weak, nonspecific inhibitor"
